Where two headings read alike, the source gives them in different places. Numbered stars: 1 amine (or outer) side, 2 acyl side, 3 side chain; on linkers, the order of the positions; unused ones are H or OH. Square brackets hold non-standard residues; d marks the D form. Peptide text beside a SMILES is read from it. * marks the point of attachment. Phe(3,4-F2) = N[C@@H](Cc1ccc(F)c(F)c1)C(=O)O; Cinnamoyl(4-F) = O=C(/C=C/c1ccc(F)cc1)*; NH(4-MeO-phenyl) = COc1ccc(N*)cc1; NMeR = CN[C@@H](CCCNC(=N)N)C(=O)O; X4 = O=C([O-])[C@H](Cc1ccccc1)N*; tBuAla = CC(C)(C)C[C@H](N)C(=O)O; NFurfurylGly = O=C(O)CNCc1ccco1; Cha = N[C@@H](CC1CCCCC1)C(=O)O; NMeD = CN[C@@H](CC(=O)O)C(=O)O; X3 = CN(C)C(NCC(=O)*)=[N+](C)C; X8 = NC[C@H](Cc1ccccc1)N*; X6 = O=C(/C=C/c1ccccc1)*; CO = O=C([*:1])[*:2]
Molecular target: T1, Escherichia coli SC (^EcSC) (Escherichia coli, UniProt P0A988)
T1 construct: His tag (inferred from the pET15b vector and Ni-NTA purification) (N); made in house; host or cells: E. coli
Assay: biochemical
Format: binding
Details: for Kd: Kd (nM); for Kd / ΔG (kcal/mol): ITC at 298.15 K (25° C.)
Experimental: The procedure has been described previously (Wolff, P.; Oliéric, V.; Briand, J. P.; Chaloin, O.; Dejaegere, A.; Dumas, P.; Ennifar, E.; Guichard, G.; Wagner, J.; Burnouf, D. Y., Structure-Based Design of Short Peptide Ligands Binding onto the E. coli Processivity Ring. J. Med. Chem. 2011, 54 (13), 4627-4637). Briefly, E.coli cells were transformed with plasmids pET15b containing the dnaN gene from E. coli and were grown in LB at 37° C. to OD 0.5, then induced by IPTG (0.1 mM) at 28° C. overnight. dnaN proteins fractions were first enriched on a Ni-NTA column, eluted with a histidine step (300 mM) and further purified on a Source Q column in buffer containing 20 mM Tris HCI pH 7.5, 0.5 mM EDTA and 10% (v/v) glycerol, using a gradient from 0 to 0.5 M NaCl. After a final ultracentrifugation (45 K, 1 h, 20° C.), soluble proteins were concentrated on a Centricon 30 K (Millipore) in the same buffer and stored at 4° C. in 2 M ammonium sulfate. Buffer exchange was performed on Centrikon 10 K at 4° C. before use and protein quality was assessed by DLS.
ITC experiments were performed using an iTC200 or a PEAQ-ITC instrument (Microcal Malvern Panalytical). Peptides (300 or 600 µM) were titrated at 25° C. by sequential injections (usually 2 µl each) into an SC solution (30 or 60 µM). Data were corrected for heat of injection by subtracting the signal of the titration of peptides into proteiN-free buffer solution (Hepes 10 mM pH 7.4, NaCl 0.15 M, EDTA 3 mM). Each titration was performed at least twice. Analyses of experimental data were performed following a classical treatment with the AFFINImeter software (https://www.affinimeter.com; S4S, Santiago de Compostela, Spain). In addition, kinetic information was obtained in some cases with kinITC as implemented in the software AFFINImeter.
All newly synthesized peptides were tested for their interaction with ^EcSC by ITC at 25° C. As a general rule, all thermodynamic profiles reveal an exothermic interaction, and a non-favorable entropic component. The resulting negative Gibb’s free energies characterize a spontaneous interaction. The analysis of raw data by the Affinimeter® software also gave access to kinetics rate constant of the interaction.

T1 sequence (P0A988 whole entry): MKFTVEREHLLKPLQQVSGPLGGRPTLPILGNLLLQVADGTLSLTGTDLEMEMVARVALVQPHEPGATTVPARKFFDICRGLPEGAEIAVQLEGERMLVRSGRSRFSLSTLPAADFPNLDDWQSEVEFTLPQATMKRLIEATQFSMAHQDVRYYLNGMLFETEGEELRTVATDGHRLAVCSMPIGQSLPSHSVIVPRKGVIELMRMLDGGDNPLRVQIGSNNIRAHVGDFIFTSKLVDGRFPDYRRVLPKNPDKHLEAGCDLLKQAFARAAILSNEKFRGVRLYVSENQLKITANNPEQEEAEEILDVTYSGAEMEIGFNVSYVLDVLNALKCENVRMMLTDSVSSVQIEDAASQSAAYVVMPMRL

Compound | Kd [nM] | ΔG (kcal/mol) | koff, fold higher than for peptide 1 (P1) (compared to P1) [fold] | kon value, fold higher than for peptide 1 (P1) (compared to P1) [fold] | kon (read-out: kon (M^-1.s^-1)) [M⁻¹ s⁻¹] | ΔG (kcal mol^-1) (ITC at 25° C.) | kon (read-out: kon (M^-1 s^-1)) [M⁻¹ s⁻¹]
CC(C)C[C@H](NC(=O)[C@H](CC(=O)O)NC(=O)[C@H](CC1CCCCC1)NC(=O)[C@H](CCC(N)=O)NC(=O)/C=C/c1ccc(F)cc1)C(=O)N[C@@H](Cc1ccccc1)C(=O)O [P18] ({Cinnamoyl(4-F)}-Q[Cha]DLF-OH) | 144 |  |  |  |  |  | 
CC(=O)N[C@@H](CCC(N)=O)C(=O)N[C@@H](CC1CCCCC1)C(=O)N(C)[C@@H](CC(=O)O)C(=O)N[C@@H](CC(C)C)C(=O)N[C@@H](Cc1ccccc1)C(=O)O [P4] (Ac-Q[Cha][NMeD]LF-OH) | 114 | -9.5 (± 0.1) kcal/mol | 2.5 | 5 | 210000 |  | 
CC(=O)N[C@@H](CCC(N)=O)C(=O)N[C@@H](CC1CCCCC1)C(=O)N(C)[C@@H](CC(=O)O)C(=O)N[C@@H](CC(C)C)C(=O)N[C@@H](Cc1ccc(F)c(F)c1)C(=O)O [P40] (Ac-Q[Cha][NMeD]L[Phe(3,4-F2)]-OH) | 148 |  |  |  |  | -9.3 (± 0.02) kcal mol^-1 | 56000
CC(C)C[C@H](NC(=O)[C@H](CC(=O)O)NC(=O)[C@H](CC1CCCCC1)NC(=O)[C@H](CCC(N)=O)NC(=O)CNCc1ccco1)C(=O)N[C@@H](Cc1ccccc1)C(=O)O [P9] (H-[NFurfurylGly]Q[Cha]DLF-OH) | 171 | -9.2 (± 0.1) kcal/mol |  |  | 48000 |  | 
CC(C)C[C@H](NC(=O)[C@H](CC(=O)O)NC(=O)[C@H](CC1CCCCC1)NC(=O)[C@H](CCC(N)=O)NC(=O)/C=C/c1ccccc1)C(=O)N[C@@H](Cc1ccccc1)C(=O)O [P17] (X6-Q[Cha]DLF-OH) | 129 | -9.4 (± 0.2) kcal/mol |  |  | 46000 |  | 
CC(C)C[C@H](NC(=O)[C@H](CC(=O)O)NC(=O)[C@H](CC1CCCCC1)NC(=O)[C@H](CCC(N)=O)NC(=O)CNC(N(C)C)=[N+](C)C)C(=O)N[C@@H](Cc1ccccc1)C(=O)[O-] [P15] (X3-Q[Cha]DL-X4) | 353 | -8.7 (± 0.1) kcal/mol |  |  | 34000 |  | 
CC(C)C[C@H](NC(=O)[C@H](CC(=O)O)N(C)C(=O)[C@H](CC1CCCCC1)NC(=O)[C@H](CCC(N)=O)NC(=O)/C=C/c1ccc(F)cc1)C(=O)N[C@@H](Cc1ccc(F)c(F)c1)C(=O)O [P41] ({Cinnamoyl(4-F)}-Q[Cha][NMeD]L[Phe(3,4-F2)]-OH) | 99 |  |  |  |  |  | 51000
CC(=O)N[C@@H](CCC(N)=O)C(=O)N[C@@H](CC1CCCCC1)C(=O)N[C@@H](CC(=O)O)C(=O)N[C@@H](CC(C)C)C(=O)NCC(=O)N[C@@H](Cc1ccccc1)C(=O)O [P29] (Ac-Q[Cha]DLGF-OH) | 313 | -8.9 (± 0.1) kcal/mol |  |  | 32000 |  | 
CC(=O)N[C@@H](CCC(N)=O)C(=O)N[C@@H](CC1CCCCC1)C(=O)N[C@@H](CC(=O)O)C(=O)N[C@@H](CC(C)C)C(=O)N[C@H](CN)Cc1ccccc1 [P25] (Ac-Q[Cha]DL-X8) | 877 | -8.27 (± 0.03) kcal/mol |  |  | 12000 |  | 
CC(=O)N[C@@H](CCC(N)=O)C(=O)N[C@@H](CC1CCCCC1)C(=O)N[C@@H](CC(=O)O)C(=O)N[C@@H](CC(C)C)C(=O)NCC(=O)N[C@@H](CC(C)(C)C)C(=O)O [P28] (Ac-Q[Cha]DLG[tBuAla]-OH) | 2690 | -7.60 (± 0.06) kcal/mol |  |  | 11000 |  | 
CC(=O)N[C@@H](CCC(N)=O)C(=O)N[C@@H](CC1CCCCC1)C(=O)N[C@@H](CC(=O)O)C(=O)N[C@@H](CC(C)C)C(=O)NCC(=O)N[C@@H](CC(C)C)C(=O)O [P27] (Ac-Q[Cha]DLGL-OH) | 682 | -8.4 (± 0.1) kcal/mol |  |  | 26000 |  | 
CC(=O)N(C)[C@@H](CCCNC(=N)N)C(=O)N[C@@H](CCC(N)=O)C(=O)N[C@@H](CC1CCCCC1)C(=O)N[C@@H](CC(=O)O)C(=O)N[C@@H](CC(C)C)C(=O)N[C@@H](Cc1ccccc1)C(=O)O [P13] (Ac-[NMeR]Q[Cha]DLF-OH) | 2130 | -7.7 (± 0.1) kcal/mol | 4 |  | 21000 |  | 
COc1ccc(NC(=O)N[C@@H](CCC(N)=O)C(=O)N[C@@H](CC2CCCCC2)C(=O)N[C@@H](CC(=O)O)C(=O)N[C@@H](CC(C)C)C(=O)N[C@@H](Cc2ccccc2)C(=O)O)cc1 [P22] ({NH(4-MeO-phenyl)-CO}-Q[Cha]DLF-OH) | 73 |  |  |  | 40000 |  | 

— patent US20230312646A1, “ANTIBACTERIAL PEPTIDES” (priority 2020, published 2023)
